This note sets out measurements from patent US6432938B1, “19-nor-cholane steroids as neurochemical initators of change in human hypothalamic function” (Pherin Corporation, priority 1996, dated 2002).

The subject of assay [1] is vomeronasal organ (VNO). The assay can be described thus: Electrovomerogram (EVG) after airborne delivery of substance to the vomeronasal organ. The class given is in vivo, human. To be noted: 2 second pulses to VNO, diluted in propylene glycol, number in cell = compound with effect. The text has this: The stimulation and recording system consists of a “multifunctional miniprobe” described elsewhere (Monti-Bloch, L. and Grosser, B. l. (1991) “Effect of putative pheromones on the electrical activity of the human vomeronasal organ and olfactory epithelium,” J. Steroid Biochem. Molec. Bio. 39:573582). The recording electrode is a 0.3 mm silver ball attached to a small (0.1 mm) silver wire insulated with Teflon© the surface of the electrode is first treated to produce a silver chloride interface, and is then covered with gelatin It is positioned within a small caliber Teflon© catheter (dia=5 mm) such that the tip of the electrode protrudes approximately 2 mm. The Teflon© catheter is 10 cm in length and constitutes the terminal extension for a multichannel delivery system which delivers a continuous air stream carrying discreet pulses of chemosensory stimuli. The air stream first passes into a small chamber and is bubbled through a solution containing either a vomeropherin or an olfactant in a diluent or the diluent alone. A solenoid is used to rapidly redirect the air stream from the chamber to a route which bypasses the chamber. This creates a discreet pulse of stimulant in the air stream. A second, outer Teflon© tube with a diameter of 2 mm surrounds the catheter-electrode assemblage, and its central end is connected to an aspirator that provides continuous suction of 3 ml/s. This concentric arrangement of the outer suction tube allows the emitted chemosensory stimuli to be localized to an area we call a “minifield” (approx. dia=1 mm), and it avoids diffusion of substances either to the area outside the intended stimulation site or into the respiratory system. The entire stimulating and recording assemblage may be positioned either on the neurosensory epithelium within the VNo, or on the surface of the olfactory or respiratory epithelium.
Electro-vomeronasogram (EVG): Recordings are carried out in a quiet room with the subject supine; the multi-functional miniprobe is initially stabilized within the nasal cavity using a nasal retractor placed in the vestibule. Reference and ground electrodes consist of silver discs (8 mm), both of which are positioned on the glabella.
The entrance to the VNO, or vomeronasal pit, is identified by first dilating the nasal aperture and vestibule. A 6×magnifying binocular loupe with halogen illumination is then used to introduce the tip of the Teflon© catheter and recording electrode assemblage into the VNo opening where it is stabilized at an approximate depth of 1 mm within the vomeronasal passage. Optimal placement of the recording electrode is signaled after testing for an adequate depolarization in response to a test substance.
Electrical signals from the recording electrode are fed to a DC amplifier after which they are digitized, computer monitored, and stored. The peak-to-peak amplitude of the signals is measured, and the area under the depolarization wave is integrated, while continuously monitoring the signal both on the computer screen and on a digital oscilloscope. Artifacts produced by respiratory movements are deleted by training the subjects to practice mouth breathing with velopharyngeal closure. Samples of vomeropherins in concentration of 25-800 fmoles are delivered in the continuous air stream for durations from 300 milliseconds to 1 second. Usually, intervals of 3 to 5 minutes separated each series of short test pulses. All components of the lines carrying the test stimuli are made of Teflon©, glass or stainless steel and are carefully cleaned and sterilized before each use. Activity was recorded using standard electroencephalographic (EEG) electrodes placed at positions Cz-Al and Tz-Al of the international […] system; the ground electrode was placed on the mastoid process. Skin temperature (ST) was recorded by a small (1.0 mm) thermistor probe placed in the right ear lobe. Respiratory frequency (RF) was measured with an adjustable strain gauge placed around the lower thorax. […]

Assay [2] has as its system vomeronasal organ (VNO). Briefly: Reflex/autonomic responses (RF, CF, BT, EMG, EEG) to stimulation of the VNO with airborne substance. The class given is in vivo, human. To be noted: for BT (body temperature): compound found to have an effect / EEG-T (electroencephalogram from temporal region): compound found to have an effect / RF (respiratory frequency): compound found to have an effect / EEG-V (electroencephalogram from vertex): compound found to have an effect / EMG (electromyogram): compound found to have an effect / CF (cardiac frequency): compound found to have an effect: 2 second pulses to VNO, number in cell = compound with effect; for gender dimorphic effects: males versus females, all recorded parameters. How it is done:
Electrical signals from the recording electrode are fed to a DC amplifier after which they are digitized, computer monitored, and stored. The peak-to-peak amplitude of the signals is measured, and the area under the depolarization wave is integrated, while continuously monitoring the signal both on the computer screen and on a digital oscilloscope. Artifacts produced by respiratory movements are deleted by training the subjects to practice mouth breathing with velopharyngeal closure. Samples of vomeropherins in concentration of 25-800 fmoles are delivered in the continuous air stream for durations from 300 milliseconds to 1 second. Usually, intervals of 3 to 5 minutes separated each series of short test pulses. All components of the lines carrying the test stimuli are made of Teflon©, glass or stainless steel and are carefully cleaned and sterilized before each use. Activity was recorded using standard electroencephalographic (EEG) electrodes placed at positions Cz-Al and Tz-Al of the international […] system; the ground electrode was placed on the mastoid process. Skin temperature (ST) was recorded by a small (1.0 mm) thermistor probe placed in the right ear lobe. Respiratory frequency (RF) was measured with an adjustable strain gauge placed around the lower thorax. All electrical signals were DC amplified, digitized (MP-100, Biopac systems) and continuously monitored utilizing a computer.
Studies were conducted to determine the central nervous system (CNS) reflex responses to vomeropherin stimulation of the VNO. The sexually dimorphic local responses induced by vomeropherins were sometimes mirrored in the autonomic response of male & female subjects.
Fourteen different substances were tested against a control. All substances were diluted in propylene glycol, in 2 ml glass bottles coded with numbers. The solvent (propylene glycol) was used as control.
The airborne substances were delivered to the vomeronasal organ (VNO) in 2 second pulses, using a miniprobe. Several parameters were recorded Electrovomerogram (EVG), respiratory frequency (RF), cardiac frequency (ECG), electrodermal activity (EDA), body temperature (BT), electromyogram (EMG), and electroencephalogram from vertex (EEG-V) and temporal region (EEG-T).
A summary of the results is shown in Table I. Each number indicates the compound found to have an effect in females or in males, on the parameter indicated in the upper row of the table. (For the equivalence of each number to the corresponding compound in males, and in females, see the compound numbers).

For `CCCC=C1CCC2C3CCc4cc(O)ccc4C3=CCC12C` (stereo not drawn) [Compound 1, 19,21-BISNORCHOLA-1,3,5(10),9(11),17(20)-PENTAEN-3-OL], in the assay with vomeronasal organ (VNO) [1] (males (M)), the “EVG (electrovomerogram): compound found to have an effect” value (“EVG (electrovomerogram): compound found” for short) is listed as 1. In addition, the “BT (body temperature): compound found to have an effect” value (“BT (body temperature): compound found” below) in the assay on vomeronasal organ (VNO) [2] (males (M)) was determined as 1.
Take `CCCCC1=CC[C@H]2[C@@H]3CCC4=C(CC[C@H](O)C4)[C@H]3CC[C@]12C` [Compound 2, 19,21-BISNORCHOLA-5(10),16-DIEN-3beta-OL]: the “EVG (electrovomerogram): compound found” value in the assay on vomeronasal organ (VNO) [1] (females (F)) is 2. The “EVG (electrovomerogram): compound found” value in the assay with vomeronasal organ (VNO) [1] (males (M)) is 2. Moreover, the “EEG-T (electroencephalogram from temporal region): compound found to have an effect” value in the assay on vomeronasal organ (VNO) [2] (females (F)) was determined as 2. Also, in the assay on vomeronasal organ (VNO) [2] (males (M)), the “BT (body temperature): compound found” value came to 2 and the “RF (respiratory frequency): compound found to have an effect” value (shortened to “RF (respiratory frequency)”) was 2. Moreover, the gender dimorphic effects result with vomeronasal organ (VNO) [2] is “gender specific”.
Take `CCCC=C1CC[C@H]2[C@@H]3C=Cc4cc(O)ccc4[C@H]3CC[C@]12C` [Compound 3, 19,21-BISNORCHOLA-1,3,5(10),6,17(20)-PENTAEN-3-OL]: the “EVG (electrovomerogram): compound found” value in the assay on vomeronasal organ (VNO) [1] (females (F)) and in the assay on vomeronasal organ (VNO) [1] (males (M)) was 3 throughout. Besides, the “EEG-V (electroencephalogram from vertex): compound found to have an effect” value (“EEG-V (electroencephalogram from vertex)” below) with vomeronasal organ (VNO) [2] (females (F)) is listed as 3. Also, in the assay with vomeronasal organ (VNO) [2] (males (M)), the “BT (body temperature): compound found” value amounted to 3.
On to `CCCCC1=CC[C@H]2[C@@H]3CCC4=CC(=O)CC[C@]4(O)[C@H]3CC[C@]12C` [Compound 4, 10beta-HYDROXY-19,21-BISNORCHOLA-4,16-DIEN-3-ONE], for which, in the assay on vomeronasal organ (VNO) [2] (females (F)), the “RF (respiratory frequency)” value worked out at 4. In addition, in the assay with vomeronasal organ (VNO) [2] (males (M)), the “BT (body temperature): compound found” value is 4 and the “EMG (electromyogram): compound found to have an effect” value is given as 4.
Take `CCCC=C1CCC2C3CCC4=CC(O)CCC4C3CCC12C` (stereo not drawn) [Compound 5, 19,21-BISNORCHOLA-4,17(20)-DIEN-3beta-OL]: the “EVG (electrovomerogram): compound found” value in the assay with vomeronasal organ (VNO) [1] (females (F)) is 5. Moreover, in the assay on vomeronasal organ (VNO) [2] (females (F)), the “RF (respiratory frequency)” value worked out at 5.
As for `CC(O)CO` (stereo not drawn) [Compound 6, PROPYLENE GLYCOL], the “EVG (electrovomerogram): compound found” value in the assay on vomeronasal organ (VNO) [1] (females (F)) was found to be 6. Further, the “EEG-T (electroencephalogram from temporal region): compound found to have an effect” value in the assay with vomeronasal organ (VNO) [2] (females (F)) came out at 6.
On to `CCCC=C1CC[C@H]2c3ccc4cc(O)ccc4c3CC[C@]12C` [Compound 7, 19,21-BISNORCHOLA-1,3,5,7,9,17(20)-HEXAEN-3-OL], for which the “EVG (electrovomerogram): compound found” value with vomeronasal organ (VNO) [1] (females (F)) and with vomeronasal organ (VNO) [1] (males (M)) was 7 in each case. Besides, in the assay on vomeronasal organ (VNO) [2] (males (M)), the “BT (body temperature): compound found” value turned out to be 7. The “EEG-T (electroencephalogram from temporal region): compound found to have an effect” value in the assay with vomeronasal organ (VNO) [2] (males (M)) is 7.
Regarding `C=C(CCC)[C@H]1CC[C@H]2[C@@H]3CCc4cc(O)ccc4[C@H]3CC[C@]12C` [Compound 8, 19-NORCHOLA-1,3,5(10),20-TETRAEN-3-OL], in the assay on vomeronasal organ (VNO) [2] (females (F)), the “CF (cardiac frequency): compound found to have an effect” value (from here on “CF (cardiac frequency): compound found”) turned out to be 8 and the “EMG (electromyogram): compound found to have an effect” value is 8. Besides, the “EEG-V (electroencephalogram from vertex)” value in the assay on vomeronasal organ (VNO) [2] (males (M)) worked out at 8.
`CCCC=C1CCC2C3=CCc4cc(O)ccc4C3CCC12C` (stereo not drawn) [Compound 9, 19,21-BISNORCHOLA-1,3,5(10),7,17(20)-PENTAEN-3-OL]: the “CF (cardiac frequency): compound found” value in the assay with vomeronasal organ (VNO) [2] (females (F)) turned out to be 9.
With `CCCCC1=CC[C@H]2[C@@H]3CCC4=C(CC[C@@H](O)C4)[C@H]3CC[C@]12C` [Compound 10, 19,21-BISNORCHOLA-5(10),16-DIEN-3alpha-OL], in the assay with vomeronasal organ (VNO) [2] (females (F)), the “CF (cardiac frequency): compound found” value came to 10 and the “EEG-T (electroencephalogram from temporal region): compound found to have an effect” value is 10. For the same compound, in the assay on vomeronasal organ (VNO) [2] (males (M)), the “EEG-T (electroencephalogram from temporal region): compound found to have an effect” value was 10 and the “EEG-V (electroencephalogram from vertex)” value came out at 10. In addition, the gender dimorphic effects entry in the assay with vomeronasal organ (VNO) [2] is “gender specific”.
For `CCCCC1=CC[C@H]2[C@@H]3CCc4cc(OC)ccc4[C@H]3CC[C@]12C` [Compound 11, 3-METHOXY-19,21-BISNORCHOLA-1,3,5(10),16-TETRAENE], in the assay with vomeronasal organ (VNO) [2] (females (F)), the “CF (cardiac frequency): compound found” value stood at 11, the “EEG-T (electroencephalogram from temporal region): compound found to have an effect” value was 11 and the “EEG-V (electroencephalogram from vertex)” value turned out to be 11. In addition, in the assay with vomeronasal organ (VNO) [2] (males (M)), the “CF (cardiac frequency): compound found” value was 11, the “EEG-T (electroencephalogram from temporal region): compound found to have an effect” value turned out to be 11 and the “EEG-V (electroencephalogram from vertex)” value turned out to be 11.
As to `CCCCC1=CCC2C3CCC4=C(CCC(=O)C4)C3CCC12C` (stereo not drawn) [Compound 12, 19,21-bisnorchola-5(10),16-dien-3-one], the “CF (cardiac frequency): compound found” value in the assay with vomeronasal organ (VNO) [2] (males (M)) was determined as 12.
